The values below come from patent US8821568B2, “Implant modified with non-hydroxylated vitamin D precursors” (Numat Biomedical S.L., priority 2008, dated 2014).

Data set [1] in a line: HPLC quantification of 7-DHC and vitamin D3 on coated substrates before and after UV irradiation. Type of data set: physicochemical. Particulars: for m7-DHC (%): 100* m7-DHC/m7-DHC^0; for ηD3 (Vit D3 product yield): moles D3 after vs moles 7-DHC before irradiation. The method, then: Substrates (polystyrene, 96 well plate; or titanium, polished titanium disks, 6.2 mm diameter, 2 mm height, inserted in a 96 well plate) were covered with 0.2 nmol of 7-DHC and Vitamin E (7-DHC: VitE=20:1, m:m) by dropping 10 μl of a 7-DHC/VitE solution in absolute ethanol. After leaving the solvent to evaporate for 15 min, samples were UV irradiated for 15 min at 302 nm. The amounts of 7-DHC and D3 present in the surfaces were quantified by HPLC. Results were compared with substrates without Vit E and with non-irradiated surfaces. Pure ethanol was used as control for all groups. Sunlight exposure was avoided for all surfaces.
The coating of each surface was extracted by adding 100 μl of ‘methanol/acetonitrile/tetrahydrofurane/water’ (67:16:2:15, v:v) to each well and shaking the plate for 2 min at 20 rpm. The content of three replicate wells was mixed to give a sample of ≈300 μl. An aliquot of 100 μl of the sample was injected in the HPLC system. Two replicate samples were prepared and analyzed for each group.
The analysis were carried out using a Waters liquid chromatographic system (Milford, Mass., USA), equipped with a refrigerated automatic injector WISP700 and a 600 pump system, connected to a Waters 996 photodiode array (PDA) detector. The software Empower was used for instrument control and data analysis. Detection was carried out at 282 nm.
A Nova Pak C18 column (Waters) was used to separate sample components before detection. The column temperature was set to 30° C. Two solvents, A: ‘methanol/acetonitrile/tetrahydrofurane/water (67:16:2:15, v:v), and B: ‘methanol/acetonitrile/tetrahydrofurane’ (75:20:5, v:v) were used in gradient elution mode as the mobile phase. Solvents A and B were vacuum-filtered through a Nylon membrane (0.45 μm pore diameter) and degassed before use. The mobile phase flow rate was 1 ml·min^−1. The binary gradient used was as follows: from 5% B to 90% B in three minutes, held for 9.5 min at 90% B, from 90% B to 5% B in one minute and equilibrated between injections at the initial conditions for 5 min (total run time=15 min+5 min equilibration between injections).
Quantification was performed by integration of the peak area of the corresponding analyte and interpolation of the peak area in 7-DHC or Vit D3 standard curves.

For data set [2], the system named is MC3T3-E1 cells. Description: Calcium content (mineralization, ICP-AES) on coated titanium implants. The class given is cell-based, mouse. The settings on record: Ti implants; 28 days; UV-treated compared to UV-untreated cells and control group. The method, then: To test the effect of the surface modification, 96-well plates were used. Ti disks were placed into the wells and treatments and UV-activation were performed over there. Cells grown onto untreated polystyrene tissue culture plastic (TCP) were added as a control for all the experiments. Cells were seeded at a density of 30,000 cells/cm^2 and they were maintained in α-MEM supplemented with 10% FCS and antibiotics. Culture media was collected after 48 hours, to test cytotoxicity and the production of the hydroxylated form of vitamin D, 25-D3. Cells were harvested after two days of culture using Trizol reagent (Roche Diagnostics, Mannheim, Germany), to analyze gene expression of several osteoblast differentiation markers and enzymes involved in vitamin D synthesis using real-time RT-PCR. […]
[…] Cell lysates were put into freeze/thaw cycles (liquid nitrogen and 37° C. water bath) to improve protein recovery. […] ALP activity was calculated by measuring the cleavage of p-Nitrophenyl Phosphate (pNPP) (Sigma, St. Louis, Mo., USA) in a soluble yellow end product which absorbs at 405 nm. […] At this point, absorbance was read at 405 nm.
To determine calcium content samples were analyzed by inductively coupled plasma atomic emission spectrometry (Optima 5300 DV, PerkinElmer, Massachussetts, USA). […]

The test system of data set [3] is MC3T3-E1 cells. Description: Cell number (DNA content) and cell covered surface on coated titanium implants. Type of data set: cell-based, mouse. The settings on record: Ti implants, 48 h. The method, then:
Cells growing on the different surfaces were lysed after 48 hours of cell culture by a freeze-thaw method in deionized distilled water. Cell lysates were used for determination of DNA quantity using Hoechst 33258 fluorescence assay. Samples were mixed with 20 μg/ml of Hoechst 33258 fluorescence stain (Sigma, St. Quentin Fallavier, France) in THE buffer at pH 7.4 containing 10 mM Tris-HCl, 1 mM EDTA and 2 M NaCl. The intensity of fluorescence was measured at excitation and emission wavelengths of 356/465 nm using a multifunction microplate reader (Cary Eclipse fluorescence spectrophotometer, Agilent Technologies, Santa Clara, United States). Relative fluorescence units were correlated with the cell number using a linear standard curve.
Confocal images were obtained of cells growing in the different treated surfaces at 48 hours of cell culture. […] Various images of each implant were taken with the confocal microscope (Leica DMI 4000B equipped with Leica TCS SPE laser system) by measuring fluorescence signal between 430-480 nm for DAPI and 500-525 nm for Phalloiding-FITC. […]
Quantitation of the percentage of titanium surface covered with MC3T3-E1cells was achieved by analyzing the previous images with ImageJ software (Rasband, W. S., ImageJ, U. S. National Institutes of Health, Bethesda, Md., USA).

The mark [4] stands for this setting: Polystyrene, irradiated, UV 302 nm 15 min.
The mark [5] stands for this setting: Titanium, irradiated, UV 302 nm 15 min.

Molecules are shown by their SMILES.

For `CC(C)CCC[C@@H](C)[C@H]1CC[C@H]2C3=CC=C4C[C@@H](O)CC[C@]4(C)[C@H]3CC[C@]12C` [7-DHC, 7-dehydrocholesterol], in data set [1] (setting [4]), the m7-DHC is 29.2 ± 2.0 ng/well, the mD3 came to 11.8 ± 0.4 ng/well, the “m7-DHC (%)” value is reported as 29% and the “ηD3 (Vit D3 product yield)” value worked out at 13.1 ± 0.4%. In data set [1] (Polystyrene, non irradiated), the m7-DHC stood at 90.1 ± 2.9 ng/well and the “m7-DHC (%)” value is on record as 88%. In data set [1] (setting [5]), the m7-DHC is recorded as 42.1 ± 3.4 ng/well, the mD3 stood at 16.4 ± 0.7 ng/well, the “m7-DHC (%)” value was found to be 39% and the “ηD3 (Vit D3 product yield)” value is listed as 16.4 ± 0.7%. In addition, in data set [1] (Titanium, non irradiated), the m7-DHC is listed as 99.9 ± 3.0 ng/well and the “m7-DHC (%)” value came to 92%. Moreover, in the data set with MC3T3-E1 cells [2], the Calcium content result is reported as “significant increase”. Further, the “Cell number (DNA content)” value in the data set on MC3T3-E1 cells [3] (30 minutes of UV irradiation vs UV-untreated) is “significantly higher amount of cells”. Further, in the data set with MC3T3-E1 cells [3] (30 minutes of UV irradiation vs without irradiation), the “Percentage of implant surface covered with cells” value was “significant greatest percentage”.
